A short description of series [1]: Solubility of the salts in water and organic solvents. Format: physicochemical.
For series [2] the following is noted: PB therapy, cited from earlier work.
The conditions of series [3]: in vivo; cited from earlier work.
Series [4] can be described thus: Specificity of the anion for Cs^+ in aqueous solution. As to conditions: versus other cations. From the text: For [H2NB2(C6F5)6]^− and [(H3O2)B2(C6F5)6]^− the process appears 100% specific for cesium so that cesium is quantitatively and exclusively separated from all other cations in the aqueous solution. Thus, a single and fully selective separation step is necessary only to separate cesium from the other components in the form of the intermediate Cs[L]. In a second step, intermediate Cs[L] is converted into the desired product CsA, allowing recycling of [L].
The interest of the inventors in weakly coordinating anions (WCAs) has led them to synthesize the new cesium salt, Cs[H2NB2(C6F5)6] (2). The inventors realized that (2) is insoluble in water and that it is instantaneously formed by mixing any aqueous solution containing Cs^+ with virtually any source of the [H2NB2(C6F5)]^− anion. The reaction is 100% specific for Cs^+, since only in this case [H2NB2(C6F5)6]^− changes its usual asymmetric conformation to an “inverse C2 symmetric” conformation to form a specific 3D lattice.

A short description of series [5]: Isolation of 2 from water containing other metal salts. As to conditions: 450 mL water with CsCl 5·10^−5 mol/L plus KCl, PbCl2, CrCl3, CaCl2, FeCl3; reagent c≈4.75·10^−5 M. As to the method: To a water solution (450 mL), containing the inorganic salts listed below, was added [Na(OEt2)3][H2NB2(C6F5)6] (27.5 mg, 0.0214 mmol; FW=1285.4; c≈4.75·10^−5 M) and the suspension was stirred overnight. A brown precipitate resulted (color presumably arising from Fe(OH)3) which was filtered off and was washed with dichloromethane to extract 2. The solvent of the extract was evaporated to dryness to leave a colorless residue: yield 19.2 mg of 2 (0.0163 mmol, 76%; FW=1172.9), identified by comparison of the IR spectrum with that of pure 2.
List of Added Inorganic Salts

Series [6] can be described thus: Isolation of Cs[H2NB2(C6F5)6] (2) from neat water containing CsCl. The method, then:
[Na(OEt2)3][H2NB2(C6F5)6] (69.6 mg, 0.0541 mmol; FW=1285.4; c≈0.9·10^−4 M) was dissolved in 570 mL of water. CsCl (9.5 mg, 0.0564 mmol; FW=168.4) was added and after brief mixing the clear solution was left unstirred. Soon colorless crystals began to separate. The mixture was left overnight and the precipitate was isolated by filtration; yield of 2 42.1 mg (0.0359 mmol, 66%; FW=1172.9). The aqueous mother liquor was extracted once with 20 mL of CH2Cl2. Evaporation of the solvent gave an additional crop of 20 mg (0.0170 mmol, 32%). Total isolated yield was 62.1 mg (0.053 mmol; 98%). The IR spectra of the isolated solids were identical with that of pure Cs[H2NB2(C6F5)6] (2).

Where two headings read alike, the source gives them in different places.

In the case of `Fc1c(F)c(F)c([B-](c2c(F)c(F)c(F)c(F)c2F)(c2c(F)c(F)c(F)c(F)c2F)c2c(F)c(F)c(F)c(F)c2F)c(F)c1F.[Cs+]` [Compound 7, Cs[B(C6F5)4]], the solubility in water entry in series [1] was “insoluble”.

Consider `Fc1c(F)c(F)c([B-]([NH2+][B-](c2c(F)c(F)c(F)c(F)c2F)(c2c(F)c(F)c(F)c(F)c2F)c2c(F)c(F)c(F)c(F)c2F)(c2c(F)c(F)c(F)c(F)c2F)c2c(F)c(F)c(F)c(F)c2F)c(F)c1F.[Cs+]` [Compound 2, Cs[H2NB2(C6F5)6]], for which, in series [1] (CH2Cl2, THF and solvents of low dielectric constant), the “solubility in CH2Cl2, THF, chloroform, Et2O and toluene” value is “dissolves well”. Further, in series [1] (MeOH), the “solubility in MeOH” value is reported as “only limited soluble”. The solubility in alkanes entry in series [1] (alkanes) was “virtually insoluble”. Further, the results for the solubility in water result in series [1] and in series [1] (listed as Cs[H2NB2(C6F5)6]) were “virtually insoluble” and “insoluble”, respectively.

In the case of `Fc1c(F)c(F)c([B-](c2c(F)c(F)c(F)c(F)c2F)(c2c(F)c(F)c(F)c(F)c2F)c2c(F)c(F)c(F)c(F)c2F)c(F)c1F.[Tl+]` [Compound 9, Tl[B(C6F5)4], reference compound], in series [1], the solubility in water result was “water insoluble”.

As for `[C-]#N.[C-]#N.[C-]#N.[C-]#N.[C-]#N.[C-]#N.[C-]#N.[C-]#N.[C-]#N.[C-]#N.[C-]#N.[C-]#N.[C-]#N.[C-]#N.[C-]#N.[C-]#N.[C-]#N.[C-]#N.[Fe+2].[Fe+2].[Fe+2].[Fe+3].[Fe+3].[Fe+3].[Fe+3]` [Prussian blue, ferric hexacyanoferrate], the “biological half-life of retention of cesium” value in series [2] (adolescents) is about 30 days; in series [2] (adults), “approximately 26 days”; in series [2] (children) it was about 24 days. The “absorption by the body via the bowels” value in series [3] is listed as “not absorbed by the body via the bowels to a noticeable extent”.

For `Fc1c(F)c(F)c([B-]([NH2+][B-](c2c(F)c(F)c(F)c(F)c2F)(c2c(F)c(F)c(F)c(F)c2F)c2c(F)c(F)c(F)c(F)c2F)(c2c(F)c(F)c(F)c(F)c2F)c2c(F)c(F)c(F)c(F)c2F)c(F)c1F` [[H2NB2(C6F5)6]^−], the specificity for cesium in series [4] is 100%.

In the case of [(H3O2)B2(C6F5)6]^−, in series [4], the specificity for cesium was 100%.

As for `Fc1c(F)c(F)c([B-](c2c(F)c(F)c(F)c(F)c2F)(c2c(F)c(F)c(F)c(F)c2F)c2c(F)c(F)c(F)c(F)c2F)c(F)c1F.[Rb+]` [Compound 8, Rb[B(C6F5)4]], the solubility in water entry in series [1] is reported as “water insoluble”.

In the case of “Cs[(C6F5)3B(OH2)—(HO)B(C6F5)3] [Compound 5]”, the solubility in water entry in series [1] was “water insoluble”; in series [1] (listed as Cs[H(OH)2B2(C6F5)6]), “insoluble”.

With `CCOCC.CCOCC.CCOCC.Fc1c(F)c(F)c([B-]([NH2+][B-](c2c(F)c(F)c(F)c(F)c2F)(c2c(F)c(F)c(F)c(F)c2F)c2c(F)c(F)c(F)c(F)c2F)(c2c(F)c(F)c(F)c(F)c2F)c2c(F)c(F)c(F)c(F)c2F)c(F)c1F.[Na+]` [[Na(OEt2)3][H2NB2(C6F5)6]], the “yield of 2 isolated from water containing other metal salts” value in series [5] was determined as 76%. Also, in series [6] (neat water 570 mL, reagent c≈0.9·10^−4 M, overnight, filtration), the “yield of 2 precipitated from water” value is 66%. Also, the “total isolated yield of 2” value in series [6] (neat water, precipitate plus one CH2Cl2 extraction of the mother liquor) stood at 98%.

(Values after patent publication US11279715B2, “Process for removing radioactive isotopes from aqueous fluids by fluorine containing reagents, fluorine containing, water-insoluble salts of the radioactive isotopes, and their use as therapeutic agents” (priority 2016, dated 2022).)
